Data reported in US5656460A, “α-glycosyl derivative of the catecholamine or its salt, and its preparation and uses” (Kabushiki Kaisha Hayashibara Seibutsu Kagaku Kenkyujo, priority 1992, dated 1997).

Key:
[1] = test system: α-glucosidase (EC 3.2.1.20); assay: Stability against hydrolysis by α-glucosidase; assay type: in vitro ADME, pig; details: forms the catecholamine (methyldopa) and D-glucose
Description: (6) Stability against hydrolysis (a) The α-glucosyl methyldopa preparations [I] and [II] are hydrolyzed by α-glucosidase (EC 3.2.1.20) specimen derived from pig liver to form methyldopa and D-glucose;

[2] = Reducing reaction by the Nelson-Somogyi's method; assay type: physicochemical
Description: The α-glucosyl methyldopa preparations [I] and [II] turn green on the anthrone-sulfuric acid reaction. The preparations are negative on a reducing reaction by the Nelson-Somogy's method;

β-glucosidase = assay: Stability against hydrolysis by β-glucosidase; assay type: in vitro ADME
Description: (6) Stability against hydrolysis

[3] = Stability in aqueous solution (coloring degree at 400 nm relating to oxidation); assay type: physicochemical; details: 100 mM phosphate buffer pH 8.0, 25° C.; for Stability compared with intact methyldopa: up to 9 days; for Coloring degree at 400 nm: 100 ppm
Method: Fifty ml aliquots of 100 mM phosphate buffer (pH 8.0) were distributed into 50 ml-flasks, added with the α-glucosyl methyldopa preparation [I] or [II] to give a concentration of 100 ppm, allowed to stand at 25° C., and sampled at a prescribed time interval to determine the stability of the preparation.
Intact methyldopa was used as a control. Five ml solution was collected from each flask at a prescribed time interval, and subjected to the measurement of the coloring degree at 400 nm relating to the oxidation of methyldopa.

7-week-old dd mice = assay: Acute toxicity test (oral, mice); assay type: in vivo
Method: The α-glucosyl methyldopa preparations [I] and [II] were tested for their acute toxicity by orally administering them to 7-week-old dd mice.

Solubility in solvent = assay type: physicochemical

SMILES | Hydrolysis by α-glucosidase [1] | Reducing reaction / reducing activity [2] | Hydrolysis by β-glucosidase (β-glucosidase) | Stability compared with intact methyldopa [3] | Coloring degree at 400 nm ([3]; day 0) | Coloring degree at 400 nm ([3]; day 1) | Coloring degree at 400 nm ([3]; day 3) | Coloring degree at 400 nm ([3]; day 5) | Coloring degree at 400 nm ([3]; day 9) | Acute toxicity: dose up to which no mouse died (7-week-old dd mice) [mg/kg] | Solubility in benzen (Solubility in solvent) | Solubility in chloroform (Solubility in solvent) | Solubility in ethanol (Solubility in solvent) | Solubility in ether (Solubility in solvent) | Solubility in methanol (Solubility in solvent) | Solubility in water (Solubility in solvent)
CC(N)(Cc1ccc(O[C@H]2O[C@H](CO)[C@@H](O)[C@H](O)[C@H]2O)c(O)c1)C(=O)O (stereo partly drawn) [α-glucosyl methyldopa preparation [II], 3-[3-hydroxy-(4-α-D-glucopyranosyl)]-2-methylalanine] | hydrolyzed | negative | not hydrolyzed | much stabler than intact methyldopa | 0.0 | 0.0 | 0.0 | 0.0 | 0.0 | ≥ 5000 | insoluble | insoluble | slightly soluble | insoluble | slightly soluble | readily soluble
CC(N)(Cc1ccc(O)c(O[C@H]2O[C@H](CO)[C@@H](O)[C@H](O)[C@H]2O)c1)C(=O)O (stereo partly drawn) [α-glucosyl methyldopa preparation [I], 3-[4-hydroxy-(3-α-D-glucopyranosyl)]-2-methylalanine] | hydrolyzed | negative | not hydrolyzed | much stabler than intact methyldopa | 0.0 | 0.0 | 0.0 | 0.0 | 0.0 | ≥ 5000 | insoluble | insoluble | slightly soluble | insoluble | slightly soluble | readily soluble
